Test [1] has as its system human oral epidermoid carcinoma KB cells. The test is described as follows: scratch assay, migration of KB cells. Format: cell-based. Conditions: 10 μM, 48 hours, control group 54.03 ± 4.21. As to the method: (§1) In the scratch assay, the cell migration rate was negatively correlated with the inhibitory effect of the drug component on tumor cell migration ability. The cell migration inhibition experiment was described as follows: tumor cells were cultured in vitro, cells in logarithmic growth phase were collected and seeded evenly in a 24-well plate at a density of 1-2×10^5 cells/well; the cells were cultured in a cell incubator until a monolayer was formed; a scratch tool was used to make a “-” (straight) scratch on the monolayer of cells; the cells were washed 1-3 times with PBS, and a medium (with 2% fetal bovine serum) containing specific test components was added to the culture. Experimental grouping: PBS control group; polypeptide or derivative thereof treatment group (N1-N54), 10 μM. Three independent parallel wells were set up in each group, and the cells were cultured continuously in a cell incubator for 48 hours. […] At least 3 representative images for each well were taken. ImageJ software was used to count the migration distance of the cells, and the cell migration rate was calculated as: cell migration rate (%)=(width of original scratch−width of current scratch)/width of original scratch×100.
This example was a scratch assay to evaluate the inhibitory effect of the polypeptide or derivative thereof (N1-N54) on the migration ability of human oral epidermoid carcinoma cells (KB). The experimental method was as described in Example 2.

The test system of test [2] is human liver adenocarcinoma cells (SK-HEP-1). The test is described as follows: transwell invasion assay, SK-HEP-1 cells. Format: cell-based. Conditions: SK-HEP-1 transwell invasion, 10 μM, 24 hours; control group 767 ± 91. An excerpt: (§2) The Transwell chamber system was used in the transwell cell invasion experiment. The chamber has an upper layer and a lower layer, which are separated by an artificial semipermeable membrane in the middle. The upper surface of the semipermeable membrane is coated with a layer of artificial matrigel to simulate extracellular matrix. Cells that have invaded through the matrigel and semi-permeable membrane will attach to the lower surface of the semi-permeable membrane. The invasion ability is evaluated by counting the number of cells on the lower surface of the semi-permeable membrane. The number of cells that have invaded is negatively correlated with the inhibitory effect of the drug on the invasion ability of the tumor cells. Transwell invasion assay was performed as follows: tumor cells were cultured in vitro, cells in logarithmic growth phase were collected, and cell suspension was prepared with fresh serum-free medium at a density of 2-3×10^5 cells/mL. Cells were inoculated, 100 μL/well cell suspension (serum-free medium) in the upper chamber and 600 μL/well complete culture medium in the lower chamber. After incubated in 37° C., 5% CO2 incubator for 4-5 hours, serum-free medium (100 μL/well) was added to the control group, and serum-free medium containing polypeptide or derivative thereof (N1-N54) was added to the upper chamber of the treatment group (100 μL/well), the final concentration of the peptide or derivative thereof in the upper chamber was 10 μM. The cells were incubated continuously for 24 hours, and then fixed with methanol and stained with crystal violet. Images were taken under a microscope and the number of invaded cells was counted with ImageJ.
This example was a transwell cell invasion experiment to evaluate the inhibitory effect of the polypeptide or derivative thereof (N1-N54) on the invasion ability of human liver adenocarcinoma cells (SK-HEP-1). The experimental method was as described in Example 4.

Test [3] concerns human melanoma cells (A375). As to the kind of experiment: scratch assay, migration of A375 cells. The test is classed as cell-based. Conditions: A375, 10 μM, 48 hours; control group 44.03 ± 6.21. As to the method:
as §1
This example was a scratch assay to evaluate the inhibitory effect of the polypeptide or derivative thereof (N1-N54) on the migration ability of human melanoma cells (A375). The experimental method was as described in Example 2.

Test [4] relates to human liver cancer cells (HepG2). The test is described as follows: scratch assay, migration of HepG2 cells. The test is classed as cell-based. Conditions: HepG2, 10 μM, 48 hours; control group 71.01 ± 6.63. As to the method: as §1
This example was a scratch assay to evaluate the inhibitory effect of the polypeptide or derivative thereof (N1-N54) on the migration ability of human liver cancer cells (HepG2). The experimental method was as described in Example 2.

The test system of test [5] is human pancreatic cancer cells (PANC-1). The test is described as follows: transwell invasion assay, PANC-1 cells. Format: cell-based. Conditions: PANC-1 transwell invasion, 10 μM, 24 hours; control group 727 ± 68.
From the text: as §2
This example was the transwell cell invasion experiment to evaluate the inhibitory effect of the polypeptide or derivative thereof (N1-N54) on the invasion ability of human pancreatic cancer cells (PANC-1). The experimental method was as described in Example 4.

Test [6] relates to human breast cancer cells (MDA-MB-453). The test is described as follows: scratch assay, migration of MDA-MB-453 cells. Format: cell-based. Conditions: MDA-MB-453, 10 μM, 48 hours; control group 32.42 ± 2.04. How it is done: as §1
This example was a scratch assay to evaluate the inhibitory effect of the polypeptide or derivative thereof (N1-N54) on the migration ability of human breast cancer cells (MDA-MB-453). The experimental method was as described in Example 2.

Test [7] deals with human breast cancer cells (MCF-7). The test is described as follows: scratch assay, migration of MCF-7 cells. The test is classed as cell-based. Conditions: MCF-7, 10 μM, 48 hours; control group 30.97 ± 1.79. As to the method:
as §1
This example was a scratch assay to evaluate the inhibitory effect of the polypeptide or derivative thereof (N1-N54) on the migration ability of human breast cancer cells (MCF-7). The experimental method was as described in Example 2.

In test [8] the test system is human lung cancer cells (A549) subcutaneous xenograft. The test is described as follows: lung cancer subcutaneous xenograft animal model, intravenous injection. The test is classed as in vivo, mice (BALB/c-nu/nu). Conditions: intravenous 60 mg/kg once every other day, 20 days; for Weight of tumor (g) (mean ± SD): control 2.53 ± 0.17; for Volume of tumor (mm^3) (mean ± SD): control 3373.26 ± 581.44. How it is done: Experimental animals: 4-6 weeks old female immunodeficiency mice (BALB/c-nu/nu, Beijing Vital River Laboratory Animal Technology Co., Ltd.).
Subcutaneous xenograft animal model. The number of cells inoculated subcutaneously vin mice was about 2×10^6/200 μL. When the volume of the subcutaneous tumor was greater than 100 mm^3, the mice were randomly divided into groups and subjected to treatment. When the mass volume of the tumors in model control group reached 2000 mm^3 or the animal dies, the treatment ended. The animals were dissected, the tumors were taken out, and the weight and volume of the tumors were measured. During the period of the entire experiment, the mice were observed and the body weight was measured every other day.
The method used in the efficacy test on the lung cancer subcutaneous xenograft animal model was as described in Example 5. The lung cancer cells were the human lung cancer cells (A549), and the route of administration was intravenous injection. This example involved a total of 3 experiments to evaluate N1-N15, N16-N30, and N31-N54 respectively. The experimental procedure, route of administration, dosage and frequency of administration, and detection method were all consistent in the three experiments. The experimental groups were model control group and polypeptide or derivative thereof treatment groups (N1-N15, N16-N30, or N31-N54). The drug dosage of the N1-N54 treatment groups was 60 mg/kg, and the treatment time was 20 days.

Ends that are not written are not given here. PEG = not defined here

With “N8: SEQ ID NO: 1 with deletion of positions 15-18 and positions 3, 4 and 11 (YRFLAKENTQD)”, the “Migration rate (%) (mean ± SD, P)” value is listed as 11.55 ± 1.62,*** % in test [1]; 4.74 ± 1.84,*** % in test [3]; 18.65 ± 6.88,*** % in test [4]; 9.44 ± 2.09,*** % in test [6]; 11.56 ± 2.35,** % in test [7]. Further, the “Number of cells (mean ± SD, P), invaded cells” value (from here on “Number of cells (mean ± SD, P)”) in test [2] is listed as 277 ± 38,****; in test [5] it was 65 ± 16,****. Further, the “Weight of tumor (g) (mean ± SD)” value in test [8] is 1.02 ± 0.21 g. Also, the “Volume of tumor (mm^3) (mean ± SD)” value in test [8] came to 1359.06 ± 275.17 mm^3.

Regarding “N9: SEQ ID NO: 1 with deletion of positions 15-18 and PEG modification at the amino terminal ({PEG}-YRVRFLAKENVTQD; reading uncertain)”, the “Migration rate (%) (mean ± SD, P)” value in test [1] was 9.27 ± 2.63,*** %; in test [3], 8.96 ± 2.46,*** %; in test [4], 35.11 ± 5.16,** %; in test [6], 7.19 ± 2.38,*** %; in test [7], 5.28 ± 2.11,*** %. Moreover, the “Number of cells (mean ± SD, P)” value in test [2] is 288 ± 35,***; in test [5], 93 ± 6,****. Moreover, the “Weight of tumor (g) (mean ± SD)” value in test [8] stood at 0.82 ± 0.29 g. Also, the “Volume of tumor (mm^3) (mean ± SD)” value in test [8] was 1241.9 ± 388.92 mm^3.

Take “N10: SEQ ID NO: 1 with deletion of positions 15-18 and 1-3 and PEG modification at the carboxyl terminal (RFLAKENVTQD-{PEG}; reading uncertain)”: the “Migration rate (%) (mean ± SD, P)” value in test [1] is listed as 13.87 ± 3.48,*** %; in test [3], 6.71 ± 2.07,*** %; in test [4], 39.45 ± 5.00,** %; in test [6], 6.9 ± 1.65,*** %; in test [7], 9.55 ± 2.72,** %. The “Number of cells (mean ± SD, P)” value is 460 ± 43,** in test [2] and 159 ± 12,**** in test [5]. Further, the “Weight of tumor (g) (mean ± SD)” value in test [8] was found to be 0.86 ± 0.17 g. In addition, the “Volume of tumor (mm^3) (mean ± SD)” value in test [8] turned out to be 1211.62 ± 670.09 mm^3.

On to “N11: SEQ ID NO: 1 with deletion of positions 15-18 and 1-3 and PEG modification at the amino terminal ({PEG}-RFLAKENVTQD; reading uncertain)”, for which the “Migration rate (%) (mean ± SD, P)” value in test [1] is listed as 8.29 ± 1.96,*** %; in test [3] it was 11.54 ± 2.23,*** %; in test [4], 53.36 ± 5.49,* %; in test [6], 4.49 ± 1.6,*** %; in test [7], 9.34 ± 3.74,** %. The “Number of cells (mean ± SD, P)” value in test [2] is reported as 398 ± 36,***; in test [5], 66 ± 14,****. In addition, the “Weight of tumor (g) (mean ± SD)” value in test [8] came out at 1.3 ± 0.23 g. Moreover, the “Volume of tumor (mm^3) (mean ± SD)” value in test [8] came to 1419.28 ± 615.42 mm^3.

As for “N12: SEQ ID NO: 1 with deletion of position 18 and positions 1-2 (VRFLAKENVTQDAED)”, the “Migration rate (%) (mean ± SD, P)” value in test [1] is recorded as 11.53 ± 2.78,*** %; in test [3], 12.46 ± 3.75,*** %; in test [4] it was 48.01 ± 5.38,** %; in test [6] it was 6.32 ± 1.78,*** %; in test [7], 11.65 ± 3.32,** %. Moreover, the “Number of cells (mean ± SD, P)” value in test [2] is given as 308 ± 42,***; in test [5], 180 ± 17,****. Further, in test [8], the “Weight of tumor (g) (mean ± SD)” value came out at 0.85 ± 0.19 g. The “Volume of tumor (mm^3) (mean ± SD)” value in test [8] was 1275.34 ± 221.5 mm^3.

Consider “N13: SEQ ID NO: 1 with deletion of positions 15-18 and positions 1-5 (LAKENVTQD)”, for which the “Migration rate (%) (mean ± SD, P)” value in test [1] is on record as 14.53 ± 3.53,** %; in test [3], 16.28 ± 4.19,** %; in test [4], 45.91 ± 4.70,** %; in test [6], 9.28 ± 2.43,*** %; in test [7], 13.79 ± 2.05,** %. Further, the “Number of cells (mean ± SD, P)” value in test [2] was 258 ± 32,****; in test [5] it was 161 ± 19,****. Besides, the “Weight of tumor (g) (mean ± SD)” value in test [8] is 0.8 ± 0.17 g. Moreover, the “Volume of tumor (mm^3) (mean ± SD)” value in test [8] was determined as 1320.14 ± 147.22 mm^3.

For the substance “N14: SEQ ID NO: 1 with deletion of positions 1-5 and addition of one amino acid at the carboxyl terminal (LAKENVTQDAEDNC)”, the “Migration rate (%) (mean ± SD, P)” value in test [1] is on record as 11.22 ± 2.66,*** %; in test [3], 6.28 ± 1.12,*** %; in test [4], 48.61 ± 4.63,** %; in test [6], 7.58 ± 2.34,*** %; in test [7], 7.05 ± 1.40,*** %. In addition, the “Number of cells (mean ± SD, P)” value in test [2] was 329 ± 54,***; in test [5] it was 157 ± 37,****. In test [8], the “Weight of tumor (g) (mean ± SD)” value was 0.7 ± 0.26 g. In addition, in test [8], the “Volume of tumor (mm^3) (mean ± SD)” value was 1431.61 ± 215.71 mm^3.

Source of the values: patent US20220280594A1, “APPLICATION OF POLYPEPTIDE OR DERIVATIVE THEREOF” (CHENGDU HUITAI BIOMEDICINE CO., LTD., priority 2019, published 2022).
